Results: the supplement of paper PMC10307832

What was measured:
Assay in all cases: relative viability (nuclei count vs DMSO), 5 days (fraction); higher = more cells survive
GSK-J4 + Palbociclib = compound: CCOC(=O)CCNc1cc(N2CCc3ccccc3CC2)nc(-c2ccccn2)n1 [GSK-J4] + CC(=O)c1c(C)c2cnc(Nc3ccc(N4CCNCC4)cn3)nc2n(C2CCCC2)c1=O [Palbociclib] (partner 0.5 µM)
Summary of the method: (§1)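 For relative viability, nuclei counts in treated wells were divided by those in vehicle wells. Lung cancer cell lines had been pin-tool dosed in 1536-well plates the day after seeding and cultured for 5 days, then fixed and stained in one step (final 0.05% Triton X-100, 1% formaldehyde, 1 ug/ml Hoechst) and imaged at 4×. Doses were one drug alone or a fixed anchor-drug dose plus five library-drug doses (not always all listed) in √10 steps, and values are duplicate-plate medians.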

AZ3146 + Bortezomib = compound: CN1CCC(CC1)OC2=CC(=C(C=C2)NC3=NC=C4C(=N3)N(C(=O)N4C)C5CCCC5)OC [AZ3146] + CC(C)C[C@H](NC(=O)[C@H](Cc1ccccc1)NC(=O)c1cnccn1)B(O)O [Bortezomib] (partner 0.002 µM)
Summary of the method: as §1

GSK-J4 + Crizotinib = compound: CCOC(=O)CCNc1cc(N2CCc3ccccc3CC2)nc(-c2ccccn2)n1 [GSK-J4] + C[C@@H](Oc1cc(-c2cnn(C3CCNCC3)c2)cnc1N)c1c(Cl)ccc(F)c1Cl [Crizotinib] (partner 1 µM)
Summary of the method: as §1

AZ3146 + Vorinostat = compound: CN1CCC(CC1)OC2=CC(=C(C=C2)NC3=NC=C4C(=N3)N(C(=O)N4C)C5CCCC5)OC [AZ3146] + O=C(CCCCCCC(=O)Nc1ccccc1)NO [Vorinostat] (partner 1 µM)
Summary of the method: as §1

Row | Cell Line | relative viability (GSK-J4 + Palbociclib; first compound 0.5 µM) | relative viability (GSK-J4 + Palbociclib; first compound 1.581 µM) | relative viability (GSK-J4 + Palbociclib; first compound 15.81 µM) | relative viability (GSK-J4 + Palbociclib; first compound 50 µM) | relative viability (AZ3146 + Bortezomib; first compound 0.08 µM) | relative viability (AZ3146 + Bortezomib; first compound 0.253 µM) | relative viability (AZ3146 + Bortezomib; first compound 0.8 µM) | relative viability (AZ3146 + Bortezomib; first compound 2.53 µM) | relative viability (AZ3146 + Bortezomib; first compound 8 µM) | relative viability (GSK-J4 + Crizotinib; first compound 0.5 µM) | relative viability (GSK-J4 + Crizotinib; first compound 1.581 µM) | relative viability (GSK-J4 + Crizotinib; first compound 15.81 µM) | relative viability (GSK-J4 + Crizotinib; first compound 50 µM) | relative viability (AZ3146 + Vorinostat; first compound 0.08 µM) | relative viability (AZ3146 + Vorinostat; first compound 0.253 µM) | relative viability (AZ3146 + Vorinostat; first compound 0.8 µM) | relative viability (AZ3146 + Vorinostat; first compound 2.53 µM) | relative viability (AZ3146 + Vorinostat; first compound 8 µM) | relative viability (GSK-J4 + Palbociclib; first compound 5 µM) | relative viability (GSK-J4 + Crizotinib; first compound 5 µM)
1 | HCC-366 | 0.357 | 0.322 | 0.357 | 0.354 | 0.983 | 1.05 | 1.08 | 1.06 | 0.735 | 0.523 | 0.405 | 0.395 | 0.445 | 0.192 | 0.408 | 0.352 | 0.278 | 0.14 | – | –
2 | HCC-827 | 0.539 | 0.46 | 0.431 | 0.411 | 0.933 | 1.07 | 1.11 | 1.09 | 1.09 | 0.963 | 0.931 | 0.91 | 0.848 | 0.774 | 0.916 | 0.641 | 0.844 | 0.892 | 0.543 | 0.933
3 | HOP-62 | 0.469 | 0.455 | 0.465 | 0.473 | 0.401 | 0.967 | 0.694 | 0.851 | 0.44 | 0.798 | 1 | 0.994 | 0.847 | 0.337 | 0.664 | 0.598 | 0.699 | 0.385 | 0.44 | 0.965
4 | IA-LM | – | – | – | – | 0.643 | 0.775 | 0.759 | 0.695 | 0.264 | 0.793 | 0.745 | 0.691 | 0.0902 | 0.674 | 0.872 | 1.01 | 0.924 | 1.06 | – | 0.867
5 | LC-2-ad | 0.438 | 0.404 | 0.49 | 0.47 | 0.857 | 1.05 | 1.03 | 0.996 | 0.668 | 0.554 | 0.426 | 0.41 | 0.427 | 0.629 | 0.703 | 0.69 | 0.694 | 0.603 | 0.447 | 0.375
6 | LCLC-97TM1 | 0.211 | 0.216 | 0.211 | 0.272 | 0.53 | 0.792 | 0.569 | 0.973 | 0.172 | – | – | 0.269 | 0.323 | 0.356 | 0.761 | 0.631 | 0.635 | 0.653 | 0.225 | 0.455
7 | LCLC-103H | 0.447 | 0.36 | 0.449 | 0.49 | 0.993 | 1.03 | 1 | 0.994 | 0.965 | 1.01 | 0.811 | 0.916 | 0.988 | 0.51 | 0.726 | 0.78 | 0.844 | 0.711 | 0.455 | 1.18
8 | LK-2 | 0.765 | 0.652 | 0.683 | 0.506 | – | – | – | – | – | 0.256 | 0.212 | 0.191 | 0.244 | 0.159 | 0.243 | 0.326 | 0.388 | 0.389 | 0.85 | 0.203
9 | NCI-H358 | 0.139 | – | 0.104 | 0.138 | – | – | – | – | – | 0.643 | 0.579 | 0.55 | 0.589 | 0.571 | 0.687 | 0.631 | 0.723 | 0.171 | 0.154 | 0.537
10 | NCI-H522 | 1.22 | 0.953 | 0.976 | 0.622 | – | – | – | – | – | – | – | – | – | 0.66 | 0.695 | 0.945 | 0.903 | 0.835 | – | –
11 | NCI-H596 | – | – | – | – | 0.961 | 1.05 | – | 1.07 | 0.935 | 1.11 | 1.04 | 0.949 | 0.992 | 0.53 | 0.541 | 0.586 | 0.571 | 0.587 | – | 0.932
12 | NCI-H1299 | – | – | – | – | 0.965 | 0.965 | 1.05 | 1.01 | 1.01 | 0.984 | 0.91 | 0.937 | 0.923 | – | – | – | – | – | – | 0.873
13 | NCI-H1395 | 0.546 | 0.518 | 0.556 | 0.61 | – | – | – | – | – | – | – | – | – | 0.66 | 0.504 | – | 0.84 | 0.615 | 0.576 | –
14 | NCI-H1563 | – | – | – | – | 0.703 | 0.82 | 0.826 | 1.01 | 0.77 | 0.888 | 0.779 | 0.837 | 0.857 | – | – | – | – | – | – | 0.684
15 | NCI-H1648 | 0.293 | – | – | 0.3 | – | – | – | – | – | – | – | – | – | – | – | 0.554 | 0.498 | 0.634 | 0.358 | –
16 | NCI-H1703 | – | – | – | – | 0.213 | 0.485 | 0.292 | 0.275 | 0.275 | 0.736 | 0.748 | 0.616 | 0.662 | – | – | – | – | – | – | 0.431
17 | NCI-H1792 | 0.622 | – | 0.569 | 0.668 | 0.784 | 1.04 | 1.05 | 0.976 | 1 | 0.981 | 0.675 | 0.955 | 0.959 | – | – | – | – | – | 0.773 | 0.911
18 | NCI-H1793 | 0.298 | 0.264 | 0.204 | 0.162 | – | – | – | – | – | – | – | – | – | 0.616 | 0.682 | 0.613 | 0.942 | 0.573 | 0.28 | –
19 | NCI-H1944 | 0.378 | 0.334 | 0.274 | 0.342 | – | – | – | – | – | 1.14 | 1.06 | 1.1 | 1.07 | 0.425 | 0.579 | 0.606 | 0.616 | 0.543 | – | 1.11
20 | NCI-H2170 | 0.372 | 0.393 | 0.311 | 0.378 | – | – | – | – | – | 1.09 | 1.14 | 1.09 | 1.11 | 0.815 | 0.763 | 0.854 | 0.867 | 0.751 | 0.392 | 1.19
21 | NCI-H2342 | 0.646 | 0.48 | 0.507 | 0.678 | – | – | – | – | – | – | – | – | – | 0.705 | 0.688 | 1.01 | 0.695 | 0.764 | 0.596 | –
22 | SK-MES-1 | 0.314 | 0.29 | 0.283 | 0.313 | – | – | – | – | – | 0.987 | 0.977 | 0.939 | 0.942 | 1.04 | 1.17 | 1.14 | 1.19 | 0.701 | 0.319 | 0.724
23 | SW 900 | 0.575 | 0.496 | 0.517 | 0.436 | – | – | – | – | – | – | – | – | – | 0.465 | – | 0.393 | 0.48 | 0.446 | 0.546 | –
